Results: publication PMC9561151, “Structural studies of the phosphoribosyltransferase involved in cobamide biosynthesis in methanogenic archaea and cyanobacteria” (Scientific Reports, 2022)

Key:
MjCobT [1] = biological target: T1, MjCobT (Methanocaldococcus jannaschii, UniProt Q58993); assay: X-ray crystal structure of complex, […] Å; type: binding
T1 construct: gene MJ1598; expressed in E. coli BL21-CodonPlus from pTEV5; N-terminal His6 tag cut with rTEV; Met 1 to Tyr 348 modelled; dimer

MjCobT [2] = biological target: T1, MjCobT; assay: turnover in crystal, product seen by X-ray; type: biochemical; details: free base not seen in the structure
MjCobT [3] = biological target: T1, MjCobT; assay: X-ray crystal structure of complex, […] Å; type: binding; details: formed in the crystal from NaMN and adenine; active site with nicotinic acid
[4] = biological target: the molecule itself; assay: crystal structure; three crystal forms of MjCobT grown at room temperature: apo (P41212, 1 subunit per asymmetric unit), with NaMN and α-RP + nicotinic acid (P21, 2 subunits), with α-AMP + nicotinic acid (P21, 2 subunits); molecular replacement with 3L0Z

Cc1cc2ncn([C@H]3O[C@H](COP(=O)(O)O)[C@@H](O)[C@H]3O)c2cc1C [α-RP]
X-ray crystal structure of complex, 2.3 Å (MjCobT [1]; formed in the crystal from NaMN and DMB, active site of chain B with nicotinic acid, occupancy below 1.0): One subunit contains NaMN, whereas the second includes α-RP and nicotinic acid

Nc1ncnc2[nH]cnc12 [adenine]
turnover in crystal, product seen by X-ray (MjCobT [2]; 1 mM adenine and 1 mM NaMN soak, pH 8.5): the reaction product was prepared in situ by soaking the crystals in NaMN and adenine

Nc1ncnc2ncn([C@H]3O[C@H](COP(=O)(O)O)[C@@H](O)[C@H]3O)c12 [α-AMP]
X-ray crystal structure of complex, 1.4 Å (MjCobT [3]): the crystals were highly ordered and the position of α-AMP is unequivocal

O=C([O-])c1ccc[n+]([C@@H]2O[C@H](COP(=O)(O)O)[C@@H](O)[C@H]2O)c1 [NaMN]
X-ray crystal structure of complex, 2.3 Å (MjCobT [1]; crystals grown with DMB, soaked overnight in 1 mM NaMN, NaMN in active site of chain A): NaMN lies at the base of the active site for chain A

Cc1cc2nc[nH]c2cc1C [DMB]
turnover in crystal, product seen by X-ray (MjCobT [2]; 1 mM DMB in crystallization, NaMN soak overnight): During that time the enzyme catalyzed a transferase reaction

B1: Methanocaldococcus jannaschii nicotinate mononucleotide:base phosphoribosyltransferase (MjCobT) (enzyme)
chain: MSIIAINENGFLDKIKGRNPLFTCVISSIETTLSIPISGVHRDVIKYTPSADVELVFYGKSLTLKTPPIDATGSPTPATITRACVELKNIKNLHIDAGAFVKPKIPFIEIDEKPTGRIEEGKAMNNSKELYMKGYLLGKNLDAELLIVGESVPGGTTTALGVLLGLGYDAEGKVSSGSINNPHELKIKVVREGLKKAGINEKSSVFDVLNAVGDKMMPVVAGLAISFAERNKPVILAGGTQMSAVLAVIKEINKKVLDKNLIAIGTTEFVLNDKKGDLKGIVEQIGNVPVLASKFYFEKAKIEGLKNYCKGSVKEGVGAGGIAVYSIVNDLEPTKIREFIENKFYEWYKE
notes: CobT (NaMN:base phosphoribosyltransferase) of Methanocaldococcus jannaschii; the modelled chain runs from Met 1 to Tyr 348; also called PRTase from Methanocaldococcus jannaschii; source: E. coli BL21-CodonPlus, purified (80 °C heat step, Ni-NTA, rTEV cleavage, second Ni-NTA); not shown: His6, N-terminal, cleaved
stoichiometry N [4]: 2
